Like-named read-outs stand apart in the source and are kept apart here.
Tests used:
Format in all cases: in vivo
[1] = test system: Surinam grass (Brachiaria decumbens); experiment: Test B pre/postemergence; details: Urochloa decumbens; for pest or weed control at 125 g/ha: 125 g ai/ha; for pest or weed control at 62 g/ha: 62 g ai/ha
In short: (§1)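 Pre: compound (non-phytotoxic solvent + surfactant) applied to freshly planted seeds. Post: same formulation sprayed on 2–18 cm plants, 1- to 4-leaf. Readout: visual control rating 0–100 vs controls, 13–15 d, greenhouse.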

[2] = test system: barnyardgrass (Echinochloa crus-galli); experiment: Test B pre/postemergence; details: Echinochloa crus-galli, post-emergence, Postemergence, scale 0 to 100 (0 no effect, 100 complete control), read-out: Barnyardgrass plant response rating
In short: as §1

[3] = test system: cocklebur (Xanthium strumarium); experiment: Test B pre/postemergence; details: Xanthium strumarium; for pest or weed control at 62 g/ha: 62 g ai/ha; for pest or weed control at 125 g/ha: 125 g ai/ha
In short: as §1

corn (Zea mays) = experiment: Test B pre/postemergence; details: Zea mays
In short: as §1

[4] = test system: crabgrass (Digitaria sanguinalis); experiment: Test B pre/postemergence; details: Digitaria sanguinalis; for pest or weed control at 62 g/ha: 62 g ai/ha; for pest or weed control at 125 g/ha: 125 g ai/ha
In short: as §1

[5] = test system: giant foxtail (Setaria faberii); experiment: Test B pre/postemergence; details: Setaria faberi; for pest or weed control at 125 g/ha: 125 g ai/ha; for pest or weed control at 62 g/ha: 62 g ai/ha
In short: as §1

[6] = test system: lambsquarters (Chenopodium album); experiment: Test B pre/postemergence; details: Chenopodium album, post-emergence, Postemergence, scale 0 to 100 (0 no effect, 100 complete control), read-out: Lambsquarters plant response rating
In short: as §1

[7] = test system: morningglory (Ipomoea coccinea); experiment: Test B pre/postemergence; details: Ipomoea; for pest or weed control at 62 g/ha: 62 g ai/ha; for pest or weed control at 125 g/ha: 125 g ai/ha
In short: as §1

[8] = test system: pigweed (Amaranthus retroflexus); experiment: Test B pre/postemergence; details: Amaranthus retroflexus, post-emergence, Postemergence, scale 0 to 100 (0 no effect, 100 complete control), read-out: Pigweed plant response rating
In short: as §1

[9] = test system: velvetleaf (Abutilon theophrasti); experiment: Test B pre/postemergence; details: Abutilon theophrasti; for pest or weed control at 62 g/ha: 62 g ai/ha; for pest or weed control at 125 g/ha: 125 g ai/ha
In short: as §1

[10] = test system: wheat (Triticum aestivum); experiment: Test B pre/postemergence; details: Triticum aestivum, scale 0 to 100 (0 no effect, 100 complete control); for plant injury at 62 g/ha: 62 g ai/ha; for plant injury at 125 g/ha: 125 g ai/ha
In short: as §1

[11] = test system: blackgrass (Alopecurus myosuroides); experiment: Test B postemergence; details: Alopecurus myosuroides, post-emergence, scale 0 to 100 (0 no effect, 100 complete control), read-out: Blackgrass plant response rating
In short: as §1

wild oat (Avena fatua) = experiment: Test B postemergence; details: Avena fatua, post-emergence, scale 0 to 100 (0 no effect, 100 complete control), read-out: Oat, Wild plant response rating
In short: as §1

[12] = test system: barnyardgrass (Echinochloa crus-galli); experiment: Test B flooded paddy test; details: Echinochloa crus-galli, Flood, scale 0 to 100, read-out: Plant response rating, Barnyardgrass
In short: (§2)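 Visual injury scoring (0 = no effect, 100 = complete control) versus controls made 13 to 15 days after treatment in the greenhouse. Test species were grown in flooded paddy to the 2-leaf stage: rice, barnyardgrass, umbrella sedge, duck salad.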

[13] = test system: duck salad (Heteranthera limosa); experiment: Test B flooded paddy test; details: Heteranthera limosa, Flood, scale 0 to 100, read-out: Plant response rating, Ducksalad
In short: as §2

rice (Oryza sativa) = experiment: Test B flooded paddy test; details: Oryza sativa, Flood, scale 0 to 100, read-out: Plant response rating, Rice
In short: as §2

[14] = test system: umbrella sedge (Cyperus difformis); experiment: Test B flooded paddy test; details: Cyperus difformis, Flood, scale 0 to 100, read-out: Plant response rating, Sedge, Umbrella
In short: as §2

[15] = post-emergence, Postemergence, scale 0 to 100 (0 no effect, 100 complete control), read-out: Surinam Grass plant response rating
[16] = post-emergence, Postemergence, scale 0 to 100 (0 no effect, 100 complete control), read-out: Cocklebur plant response rating
[17] = post-emergence, Postemergence, scale 0 to 100 (0 no effect, 100 complete control), read-out: Crabgrass plant response rating
[18] = post-emergence, Postemergence, scale 0 to 100 (0 no effect, 100 complete control), read-out: Foxtail, Giant plant response rating
[19] = post-emergence, Postemergence, scale 0 to 100 (0 no effect, 100 complete control), read-out: Morningglory plant response rating
[20] = post-emergence, Postemergence, scale 0 to 100 (0 no effect, 100 complete control), read-out: Velvetleaf plant response rating
[21] = post-emergence, Postemergence, read-out: Wheat plant response rating
[22] = pre-emergence, Preemergence, read-out: Plant response rating, Wheat

## CCOC(=O)c1nc(-c2ccc(Br)cc2)nc(N)c1Cl [Compound 94, ethyl 6-amino-2-(4-bromophenyl)-5-chloro-4-pyrimidinecarboxylate]
[1]; [15]
  pest or weed control at 125 g/ha: 80%
  pest or weed control at 62 g/ha: 80%
[1]; pre-emergence, Preemergence, scale 0 to 100 (0 no effect, 100 complete control), read-out: Plant response rating, Surinam Grass
  pest or weed control at 125 g/ha: 30%
[1]; pre-emergence, Preemergence, scale 0 to 100, 0 no effect, 100 complete control, read-out: Plant response rating, Surinam Grass
  pest or weed control at 62 g/ha: 10%
[2]; 62 g ai/ha
  pest or weed control at 62 g/ha: 80%
[2]; 125 g ai/ha
  pest or weed control at 125 g/ha: 90%
[3]; [16]
  pest or weed control at 62 g/ha: 100%
  pest or weed control at 125 g/ha: 100%
[3]; pre-emergence, Preemergence, scale 0 to 100, 0 no effect, 100 complete control, read-out: Plant response rating, Cocklebur
  pest or weed control at 62 g/ha: 30%
[3]; pre-emergence, Preemergence, scale 0 to 100 (0 no effect, 100 complete control), read-out: Plant response rating, Cocklebur
  pest or weed control at 125 g/ha: 50%
Corn (Zea mays); post-emergence, Postemergence, 62 g ai/ha, scale 0 to 100 (0 no effect, 100 complete control), read-out: Corn plant response rating
  plant injury at 62 g/ha: 70%
Corn (Zea mays); post-emergence, Postemergence, 125 g ai/ha, scale 0 to 100 (0 no effect, 100 complete control), read-out: Corn plant response rating
  plant injury at 125 g/ha: 90%
Corn (Zea mays); pre-emergence, Preemergence, 62 g ai/ha, scale 0 to 100, 0 no effect, 100 complete control
  Corn plant response rating (crop injury, 0 = no effect, 100 = complete kill) at 62 g/ha: 0%
Corn (Zea mays); pre-emergence, Preemergence, 125 g ai/ha, scale 0 to 100 (0 no effect, 100 complete control)
  Corn plant response rating (crop injury, 0 = no effect, 100 = complete kill) at 125 g/ha: 0%
[4]; [17]
  pest or weed control at 62 g/ha: 70%
  pest or weed control at 125 g/ha: 80%
[4]; pre-emergence, Preemergence, scale 0 to 100, 0 no effect, 100 complete control, read-out: Plant response rating, Crabgrass
  pest or weed control at 62 g/ha: 40%
[4]; pre-emergence, Preemergence, scale 0 to 100 (0 no effect, 100 complete control), read-out: Plant response rating, Crabgrass
  pest or weed control at 125 g/ha: 70%
[5]; [18]
  pest or weed control at 125 g/ha: 60%
  pest or weed control at 62 g/ha: 50%
[5]; pre-emergence, Preemergence, scale 0 to 100 (0 no effect, 100 complete control), read-out: Plant response rating, Foxtail, Giant
  pest or weed control at 125 g/ha: 20%
[5]; pre-emergence, Preemergence, scale 0 to 100, 0 no effect, 100 complete control, read-out: Plant response rating, Foxtail, Giant
  pest or weed control at 62 g/ha: 0%
[6]; 62 g ai/ha
  pest or weed control at 62 g/ha: 90%
[6]; 125 g ai/ha
  pest or weed control at 125 g/ha: 90%
[7]; [19]
  pest or weed control at 62 g/ha: 80%
  pest or weed control at 125 g/ha: 90%
[7]; pre-emergence, Preemergence, scale 0 to 100, 0 no effect, 100 complete control, read-out: Plant response rating, Morningglory
  pest or weed control at 62 g/ha: 0%
[7]; pre-emergence, Preemergence, scale 0 to 100 (0 no effect, 100 complete control), read-out: Plant response rating, Morningglory
  pest or weed control at 125 g/ha: 0%
[8]; 62 g ai/ha
  pest or weed control at 62 g/ha: 90%
[8]; 125 g ai/ha
  pest or weed control at 125 g/ha: 90%
[9]; [20]
  pest or weed control at 62 g/ha: 90%
  pest or weed control at 125 g/ha: 100%
[9]; pre-emergence, Preemergence, scale 0 to 100, 0 no effect, 100 complete control, read-out: Plant response rating, Velvetleaf
  pest or weed control at 62 g/ha: 40%
[9]; pre-emergence, Preemergence, scale 0 to 100 (0 no effect, 100 complete control), read-out: Plant response rating, Velvetleaf
  pest or weed control at 125 g/ha: 70%
[10]; [21]
  plant injury at 62 g/ha: 40%
  plant injury at 125 g/ha: 60%
[10]; [22]
  plant injury at 62 g/ha: 30%
  plant injury at 125 g/ha: 60%
[11]; 62 g ai/ha
  pest or weed control at 62 g/ha: 40%
[11]; 125 g ai/ha
  pest or weed control at 125 g/ha: 60%
Wild oat (Avena fatua); 62 g ai/ha
  pest or weed control at 62 g/ha: 30%
Wild oat (Avena fatua); 125 g ai/ha
  pest or weed control at 125 g/ha: 30%
[12]; 125 g ai/ha
  pest or weed control at 125 g/ha: 0%
[12]; 500 g ai/ha
  pest or weed control at 500 g/ha: 0%
[13]; 125 g ai/ha
  pest or weed control at 125 g/ha: 100%
[13]; 500 g ai/ha
  pest or weed control at 500 g/ha: 100%
Rice (Oryza sativa); 125 g ai/ha
  plant injury at 125 g/ha: 0%
Rice (Oryza sativa); 500 g ai/ha
  plant injury at 500 g/ha: 0%
[14]; 125 g ai/ha
  pest or weed control at 125 g/ha: 90%
[14]; 500 g ai/ha
  pest or weed control at 500 g/ha: 90%

— patent US8802597B2, “Herbicidal pyrimidines” (E I du Pont de Nemours and Company, priority 2003, dated 2014)
